Results as given in PubChem BioAssay (NCI).
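Tested at 5 concentrations; 48 h exposure; 96-well plates; endpoints linearly interpolated, else capped at highest concentration. GI50 = concentration required for 50% inhibition of growth. Definition used: TGI = concentration required for complete inhibition of growth.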

Legend:
Test in all cases: NCI tumour cell line growth inhibition, 48 h
COLO 205 colon = system: COLO 205 colon
T-47D breast = system: T-47D breast
NCI-H522 lung = system: NCI-H522 lung
HL-60(TB) leukemia = system: HL-60(TB) leukemia
K-562 leukemia = system: K-562 leukemia
HS 578T breast = system: HS 578T breast
SK-OV-3 ovarian = system: SK-OV-3 ovarian
M14 melanoma = system: M14 melanoma
HT29 colon = system: HT29 colon
MCF7 breast = system: MCF7 breast

SMILES	GI50 (COLO 205 colon) [µM]	TGI (COLO 205 colon) [µM]	GI50 (T-47D breast) [µM]	TGI (T-47D breast) [µM]	GI50 (NCI-H522 lung) [µM]	TGI (NCI-H522 lung) [µM]	GI50 (HL-60(TB) leukemia) [µM]	TGI (HL-60(TB) leukemia) [µM]	GI50 (K-562 leukemia) [µM]	GI50 (HS 578T breast) [µM]	TGI (HS 578T breast) [µM]	GI50 (SK-OV-3 ovarian) [µM]	TGI (SK-OV-3 ovarian) [µM]	GI50 (M14 melanoma) [µM]	TGI (M14 melanoma) [µM]	GI50 (HT29 colon) [µM]	TGI (HT29 colon) [µM]	GI50 (MCF7 breast) [µM]	TGI (MCF7 breast) [µM]	TGI (K-562 leukemia) [µM]
O=C1c2cccnc2C(=O)c2c1c(C(=O)OCCCN1CCCCC1)c1ccccn21	< 0.0128	0.0303	1.1	21.5	< 0.01	< 0.0156	0.122	7.5	< 0.0144	< 0.0178	0.132	< 0.01	< 0.0199	< 0.01	0.0384	0.0295	0.665	< 0.01	< 0.015	–
Cc1ccc(C2NC(=O)c3ccccc3N2)c(C)c1 (stereo not drawn)	–	14.2	–	> 100	–	4.91	–	1.61	–	–	6.78	–	> 100	–	40	–	34.9	–	8.34	8.37
COc1ccc(-c2c3c(nc4n[nH]c(-c5ccc(Cl)cc5)c24)-c2ccccc2C(=O)C3=O)cc1	1.57	2.99	1.03	9.47	1.43	2.99	3.08	28.1	1.58	1.85	8.14	1.68	3.23	1.71	3.48	1.87	3.4	1.46	5.7	> 100
CC1=Nc2c([nH]c(=S)[nH]c2=O)NC(c2c(Cl)cccc2Cl)C1 (stereo not drawn)	–	4.34	–	3.21	–	7.33	–	2.54	–	–	17.1	–	18.1	–	6.47	–	2.35	–	3.12	2.21
CN1CCN(c2nc(-c3csc(-c4cccs4)n3)cc3ccccc23)CC1	–	–	1.85	4.56	1.94	3.95	2.17	4.71	2.16	1.7	4.34	–	–	1.87	3.71	1.66	3.41	1.63	3.2	4.92
CCN1C(=NCCO)NS(=O)(=O)c2ccccc21	–	> 100	–	> 100	–	> 100	–	> 100	–	–	> 100	–	> 100	–	> 100	–	> 100	–	> 100	> 100
O=[N+]([O-])c1cc([N+](=O)[O-])c(Cl)cc1Cl	1.77	3.65	1.71	4.42	–	–	0.456	2.7	0.249	2.38	7.56	1.78	3.21	1.73	3.59	–	–	1.67	4.23	0.642
CCCCOC1OC(COC(=O)C(C)C)C(OC(=O)C(C)C)C(O)C1OC1OC(C)C(OC(=O)CCC)C(OC(=O)C(C)C)C1O (stereo not drawn)	13.1	25.8	15	35.3	19.1	39.6	18.1	42.9	3.09	20.7	39.7	19.8	34	–	–	9.33	22.5	8.4	61.6	14.3
CCCCNc1ccc(Nc2ccccc2)cc1	2.77	11.7	1.65	47	–	–	2.05	5.35	2.45	5.11	73.7	12.6	70.3	6.3	31.3	4.37	25.1	3.74	28	12
O=C1CC/C(=C/COc2cc(=O)oc3ccccc23)O1	3.61	17.5	2.27	19.8	1.73	4.36	–	–	19.3	10.5	57.4	22.9	> 100	2.48	13	4.38	19.6	3.74	20.2	95.2
COc1ccc(CCN2CCC(CN(C)Cc3cnn(-c4ccccc4)c3)CC2)cc1	3.42	11.7	10.4	30.7	4.54	19	20	48.4	3.14	13.5	32.6	16.2	39.9	–	–	4.29	17.3	13.9	28.2	10.9
CC(=O)Nc1n[n+]([O-])c2cc(C)ccc2[n+]1[O-]	–	8.48	–	11.4	–	5.53	–	–	–	–	40.7	–	20.3	–	8.3	–	13.4	–	3.66	> 49.3
COc1cc2c(c(OC)c1OC)-c1ccc(N=NC(N)=S)c(=O)cc1[C@@H](NC(C)=O)CC2	0.26	0.682	0.361	> 100	0.354	–	0.378	–	0.425	0.294	–	0.43	–	–	–	0.388	> 100	0.364	> 100	> 100
CCCCCCNCc1cc(C(C)(C)C)cc(CNCCCCCC)c1O	1.67	3.07	1.65	3.29	1.65	3.13	1.68	3.33	1.3	1.72	4.03	–	–	1.75	3.18	1.75	3.24	1.71	3.17	3.04
C=Cn1c([N+](=O)[O-])cnc1/C=C/c1ccc(C(=O)OCCN2CCOCC2)cc1	–	> 100	–	> 100	–	> 100	–	–	–	–	> 100	–	> 100	–	> 100	–	> 100	–	> 100	> 100
